The record followed here is US10716753B2, “Compositions for pulmonary delivery of long-acting muscarinic antagonists or long-acting B2 adrenergic receptor agonists and associated methods and systems” (priority 2009, dated 2020).

Data set [1] is described as follows: Aerosol performance by Next Generation Impactor, USP <601> (fine particle fraction, MMAD). The data set is classed as physicochemical.
Method: A Next Generation Impactor (NGI) operated at a flow rate of 30 L/min was used for determination of particle size distribution. Sample canisters were seated into an actuator with two waste actuations and two additional waste priming actuations. Five actuations were collected in the NGI with a USP throat attached. The valve, actuator, throat, NGI cups, stages, and filter were rinsed with volumetrically dispensed solvent. The sample solutions were assayed using a drug specific chromatographic method. The fine particle fraction was defined using the sum of stages 3 through filter. […] Inhalers were seated and primed as described before. Two actuations were collected and assayed at beginning, middle and end of use.
A Next Generation Impactor (NGI) operated at a flow rate of 30 L/min was used for determination of particle size distribution. Sample canisters were seated into an actuator with two waste actuations and two additional waste priming actuations. Five actuations were collected in the NGI with a USP throat attached. The valve, actuator, throat, NGI cups, stages, and filter were rinsed with volumetrically dispensed solvent. The sample solutions were assayed using a drug specific chromatographic method. The fine particle fraction was defined using the sum of stages 3 through filter. […] Two actuations were collected and assayed at beginning, middle and end of use.
A Next Generation Impactor (NGI) operated at a flow rate of 30 L/min was used for determination of particle size distribution. Sample canisters were seated into an actuator with two waste actuations and two additional waste priming actuations. Five actuations were collected in the NGI with a USP throat attached. The valve, actuator, throat, NGI cups, stages, and filter were rinsed with volumetrically dispensed solvent. The sample solutions were assayed using a drug specific chromatographic method. The fine particle fraction was defined using the sum of stages 3 through filter.
Data set [2] can be described thus: Visual observation of suspension quality / co-suspension in glass vials, incl. centrifugation. The format is physicochemical. Conditions: glass vials heated to 30° C.-35° C. An excerpt:
Exemplary methods for assessing whether a co-suspension is present can include the following: If one particle type has a pycnometric density greater than the propellant and another particle type has a pycnometric density lower than the propellant, a visual observation of the creaming or sedimentation behavior can be employed to determine the presence of a co-suspension. The term “pycnometric density” refers to the density of a material that makes up a particle, excluding voids within the particle. In one embodiment, the materials can be formulated or transferred into a transparent vial, typically a glass vial, for visual observation. After initial agitation the vial is left undisturbed for a sufficient time for formation of a sediment or cream layer, typically 24 hours. If the sediment or cream layer is observed to be completely or mostly a uniform single layer, a co-suspension is present.
Metered dose inhalers were prepared by weighing the target masses of micronized GP particles and suspending particles into fluorinated ethylene polymer (FEP) coated aluminum canisters (Presspart, Blackburn, UK) with 19 mL volume. […]

Data set [3] deals with patients with mild to moderate COPD. In words: Multi-center crossover clinical trial, single administration: FEV1 spirometry. The data set is classed as in vivo, human. Conditions: all doses of Glycopyrrolate MDI; tiotropium 18 μg.
[4] abbreviates: co-suspension MDI: 2 mg SX, 60 mg suspending particles, 10 mL HFA 134a.

For `OCc1cc(C(O)CNCCCCCCOCCCCc2ccccc2)ccc1O` (stereo not drawn) [SX, 4-hydroxy-α1-[[[6-(4-phenylbutoxy)hexyl]amino]methyl]-1,3-benzenedimethanol, 1-hydroxy-2-naphthalenecarboxylate], in data set [1] (setting [4]), the Fine particle fraction stood at 48% and the MMAD came out at 3.7 μm. In addition, in data set [2], the “Visual observation of active agent particles formulated alone” value was “sedimented rapidly” and the “Visual observation of co-suspension vial” value is “no SX crystals were visible at the bottom”.
Take `C[N+]1(C)CCC(OC(=O)C(O)(c2ccccc2)C2CCCC2)C1.[Br-]` (stereo not drawn) [glycopyrrolate, Pyrrolidinium, 3-((cyclopentylhydroxyphenylacetyl)oxy)-1,1-dimethyl-, bromide]: the Fine particle fraction in data set [1] (24 μg per actuation co-suspension MDI, initially) is listed as 59.3%.
For `C[N+]1(C)[C@@H]2C[C@@H](OC(=O)C(O)(c3cccs3)c3cccs3)C[C@H]1[C@@H]1O[C@@H]12` [tiotropium], the “Mean time to ≥10% improvement in FEV1” value in data set [3] was “approximately 3 hour”.
